Here are results for 22 compounds from US11046714B2, “2,2-difluorodioxolo A2A receptor antagonists” (Merck Sharp & Dohme Corp., priority 2013, dated 2021).

The assay addresses human A2A receptor (Homo sapiens (Human), UniProt P29274). Nature of the assay: competition binding assay using Scintillation Proximity technology. The note with it: membranes from CHO-K1 cells expressing the human A2a receptor; 2.0 nM tritiated compound; Cheng-Prusoff. The method, boiled down: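 Membranes (1.0 μg) from CHO-K1 cells expressing human A2A were treated with adenosine deaminase, then incubated 1 h at room temperature with compound (3000–0.15 nM) and 2.0 nM tritiated SCH-type ligand on WGA SPA beads in PBS plus 10 mM MgCl2. Nonspecific binding was defined with 1 μM CGS 15943. Ki was derived from EC50 via Cheng-Prusoff.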

Usually pKi stands for the negative decadic logarithm of the Ki, by convention in mol/L.

pKi: −log10 of the molar value.

human A2A receptor, sequence (P29274 whole entry): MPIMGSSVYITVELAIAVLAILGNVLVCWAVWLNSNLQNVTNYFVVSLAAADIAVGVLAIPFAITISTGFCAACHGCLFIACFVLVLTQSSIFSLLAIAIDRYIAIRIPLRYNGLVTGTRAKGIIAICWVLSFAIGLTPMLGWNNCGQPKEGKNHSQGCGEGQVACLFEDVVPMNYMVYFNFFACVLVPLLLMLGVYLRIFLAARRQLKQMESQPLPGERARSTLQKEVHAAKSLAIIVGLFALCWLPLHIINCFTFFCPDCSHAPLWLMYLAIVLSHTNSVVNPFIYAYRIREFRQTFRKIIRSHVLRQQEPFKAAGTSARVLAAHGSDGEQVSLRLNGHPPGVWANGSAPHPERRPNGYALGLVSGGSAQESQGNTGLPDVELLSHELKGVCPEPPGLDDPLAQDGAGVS

The compound `Nc1nc2c3c(ccc2c2nc(CCN4CC5CC4C(F)(F)C5)nn12)OC(F)(F)O3` (single isomer, unassigned) [Example 67, (R or S)-8-[2-(6,6-difluoro-2-azabicyclo[2.2.1]hept-2-yl)ethyl]-2,2-difluoro[1,3]dioxolo[4,5-h][1,2,4] triazolo[1,5-c]quinazolin-5-amine] gave a pKi of 8.46.

Turning to `C[C@@H]1CC(F)(F)CN1CCc1nc2c3ccc4c(c3nc(N)n2n1)OC(F)(F)O4` [Example 25], the pKi is 8.96.

Turning to `Nc1nc2c3c(ccc2c2nc(C4CCCN(c5cc(F)cc(F)c5)C4)nn12)OC(F)(F)O3` (single isomer, unassigned) [Example 145, (R or S)-8-[1-(3,5-difluorophenyl)piperidin-3-yl]-2,2-difluoro[1,3] dioxolo[4,5-h][1,2,4]triazolo[1,5-c]quinazolin-5-amine], the pKi was 6.85. This pKi lies 2.11 log units lower than the previous one.

In turn, `Nc1nc2c3c(ccc2c2nc(CN4CCC(F)(F)CC4)nn12)OC(F)(F)O3` [Example 119, 8-[(4,4-difluoropiperidin-1-yl)methyl]-2,2-difluoro[1,3]dioxolo[4,5-h][1,2,4] triazolo[1,5-c]quinazolin-5-amine] gave a pKi of 8.77.

`Nc1nc2c3c(ccc2c2nc(CC(C(F)F)N4Cc5cccnc5C4)nn12)OC(F)(F)O3` (single isomer, unassigned) [Example 97, (R or S)-8-(3,3-difluoro-2-(5H-pyrrolo[3,4-b]pyridin-6(7H)-yl)propyl)-2,2-difluoro-[1,3]dioxolo[4,5-h][1,2,4]triazolo[1,5-c]quinazolin-5-amine] had a pKi of 8.66. The pKi values of the last two compounds are within 0.2 log units of each other.

Turning to `CC(c1nc2c3ccc4c(c3nc(N)n2n1)OC(F)(F)O4)N1CC(F)(F)C1` (single isomer, unassigned) [Example 132, (R or S)-8-[1-(3,3-difluoroazetidin-1-yl)ethyl]-2,2-difluoro[1,3]dioxolo [4,5-h][1,2,4]triazolo[1,5-c]quinazolin-5-amine], the pKi was 7.25. Against the preceding compound, the pKi is 1.41 log units lower.

On to `Cc1ncc(N2CCN(CCc3nc4c5ccc6c(c5nc(N)n4n3)OC(F)(F)O6)[C@H](C)C2)s1` [Example 45, 2,2-difluoro-8-{2-[(2R)-2-methyl-4-(2-methyl-1,3-thiazol-5-yl)piperazin-1-yl]ethyl} [1,3]dioxolo[4,5-h][1,2,4] triazolo[1,5-c]quinazolin-5-amine], for which the pKi is 8.82.

`Nc1nc2c3c(ccc2c2nc(CCN4CCC(F)(F)C4)nn12)OC(F)(F)O3` [Example 24, 8-[2-(3,3-difluoropyrrolidin-1-yl)ethyl]-2,2-difluoro[1,3] dioxolo[4,5-h][1,2,4]triazolo [1,5-c]quinazolin-5-amine] had a pKi of 8.85.

The compound `Nc1nc2c3c(ccc2c2nc(CCN4CCC(F)(F)CC4)nn12)OC(F)(F)O3` [Example 30, 8-[2-(4,4-difluoropiperidin-1-yl)ethyl]-2,2-difluoro[1,3] dioxolo[4,5-h][1,2,4]triazolo [1,5-c]quinazolin-5-amine] had a pKi of 8.59. Against the preceding compound, the pKi is 0.26 log units lower.

`C[C@@H]1CN(c2ccc(F)cc2)CCN1Cc1nc2c3ccc4c(c3nc(N)n2n1)OC(F)(F)O4` [Example 106, 2,2-difluoro-8-{[(2R)-4-(4-fluorophenyl)-2-methylpiperazin-1-yl]methyl}[1,3]dioxolo[4,5-h][1,2,4] triazolo[1,5-c]quinazolin-5-amine] had a pKi of 8.68.

`Cc1nc2c(s1)CCN([C@H](C)Cc1nc3c4ccc5c(c4nc(N)n3n1)OC(F)(F)O5)C2` [Example 82, 2,2-difluoro-8-[(2R)-2-(2-methyl-6,7-dihydro[1,3]thiazolo[4,5-c]pyridin-5(4H)-yl)propyl][1,3] dioxolo[4,5-h][1,2,4]triazolo [1,5-c]quinazolin-5-amine] gave a pKi of 8.82.

`Nc1nc2c3c(ccc2c2nc([C@@H]4CCCN(CC(F)(F)F)C4)nn12)OC(F)(F)O3` [Example 138, (R)-2,2-difluoro-8-(1-(2,2,2-trifluoroethyl)piperidin-3-yl)-[1,3]dioxolo[4,5-h][1,2,4]triazolo[1,5-c]quinazolin-5-amine] showed a pKi of 9.00.

`Nc1nc2c3c(ccc2c2nc(CC4CCN(CCC(F)(F)F)C4)nn12)OC(F)(F)O3` (single isomer, unassigned) [Example 154, (R or S)-2,2-difluoro-8-{[1-(3,3,3-trifluoropropyl)pyrrolidin-3-yl]methyl}[1,3]dioxolo[4,5-h][1,2,4]triazolo[1,5-c]quinazolin-5-amine] showed a pKi of 7.70. This pKi is 1.30 log units lower than that of the compound before.

For the compound `CC1(C)CN(Cc2nc3c4ccc5c(c4nc(N)n3n2)OC(F)(F)O5)C1` [Example 110, 8-[(3,3-dimethylazetidin-1-yl)methyl]-2,2-difluoro[1,3]dioxolo[4,5-h][1,2,4]triazolo[1,5-c]quinazolin-5-amine], the pKi is 8.54.

Compound `Cc1nc2c(o1)CN([C@H](C)Cc1nc3c4ccc5c(c4nc(N)n3n1)OC(F)(F)O5)CC2` [Example 79, 2,2-difluoro-8-[(2R)-2-(2-methyl-6,7-dihydro[1,3]oxazolo[5,4-c]pyridine-5(4H)-yl)propyl][1,3] dioxolo[4,5-h][1,2,4]triazolo[1,5-c] quinazolin-5-amine] gave a pKi of 8.89.

`Nc1nc2c3c(ccc2c2nc(CCN4CCCC(C(F)(F)F)C4)nn12)OC(F)(F)O3` (stereo not shown) [Example 62, 2,2-difluoro-8-{2-[3-(trifluoromethyl)piperidin-1-yl]ethyl}[1,3]dioxolo[4,5-h][1,2,4]triazolo[1,5-c]quinazolin-5-amine]: the pKi was 8.44.

Turning to `Nc1nc2c3c(ccc2c2nc(CN4CCN(c5ccc(F)cn5)CC45CC5)nn12)OC(F)(F)O3` [Example 103, 2,2-difluoro-8-{[7-(5-fluoropyridin-2-yl)-4,7-diazaspiro[2.5]oct-4-yl]methyl}[1,3]dioxolo[4,5-h][1,2,4] triazolo[1,5-c]quinazolin-5-amine], the pKi is 8.47.

As for `C[C@@H]1CN(c2nsnc2Cl)CCN1Cc1nc2c3ccc4c(c3nc(N)n2n1)OC(F)(F)O4` [Example 108, 8-{[(2R)-4-(4-chloro-1,2,5-thiadiazol-3-yl)-2-methylpiperazin-1-yl]methyl}-2,2-difluoro[1,3] dioxolo[4,5-h][1,2,4]triazolo[1,5-c]quinazolin-5-amine], the pKi is 8.12.

In turn, `CCC1(F)CN(CCc2nc3c4ccc5c(c4nc(N)n3n2)OC(F)(F)O5)C1` [Example 17, 8-[2-(3-ethyl-3-fluoroazetidin-1-yl)ethyl]-2,2-difluoro[1,3] dioxolo[4,5-h][1,2,4]triazolo [1,5-c]quinazolin-5-amine] showed a pKi of 8.46.

`Nc1nc2c3c(ccc2c2nc(C4CCCN(c5cncnc5)C4)nn12)OC(F)(F)O3` (single isomer, unassigned) [Example 146, (R or S)-2,2-difluoro-8-(1-pyrimidin-5-ylpiperidin-3-yl)[1,3]dioxolo[4,5-h][1,2,4]triazolo[1,5-c]quinazolin-5-amine] had a pKi of 7.36.

For `Nc1nc2c3c(ccc2c2nc(CCn4cccn4)nn12)OC(F)(F)O3` [Example 99, 8-(2-(1H-pyrazol-1-yl)ethyl)-2,2-difluoro-[1,3]dioxolo[4,5-h][1,2,4]triazolo[1,5-c]quinazolin-5-amine], the pKi was 8.57.

Turning to `Nc1nc2c3c(ccc2c2nc(C[C@@H](N)C4CC4)nn12)OC(F)(F)O3` [Example 159, 8-[(2R)-2-amino-2-cyclopropylethyl]-2,2-difluoro[1,3]dioxolo[4,5-h][1,2,4]triazolo[1,5-c]quinazolin-5-amine], the pKi was 6.74.
